We go through 16 compounds from patent publication US6872850B2, “Small molecule inhibitors of secretion of proteins encoded by ARE-mRNAs” (Message Pharmaceuticals, priority 2001, dated 2005).

“Also recorded” adds a separate entry of the source.

The subject of one test is 3′ UTR of the TNFα gene. The experiment in a line: cell-based luciferase reporter assay, 5B cell line (luciferase gene with entire 3′ UTR of the TNFα gene). Set-up: species or system mouse. As to conditions: for Luciferase 5B (% of DMSO control) / Luciferase 5B/3B (% of DMSO control 5B)/(% of DMSO control 3B): 10 μM compound; for Luciferase 5B (% of DMSO control): 1 h, then LPS, 5B cell line; for Luciferase 5B/3B (% of DMSO control 5B)/(% of DMSO control 3B): ratio of 5B to control 3B cell line. How it is done: The candidate compounds were tested in a high-throughput, cell-based luciferase reporter assay. For this assay, a commercially available mouse macrophage Raw 264.7 cell line was stably transfected with a construct containing the CMV promoter operably linked to the luciferase gene which was modified using standard molecular biology techniques to contain the entire 3′ UTR of the TNFα gene. This 3′ UTR is important for the stability and translation of TNFα in cells. To control for effects of candidate compounds that are not specific for TNFα, a control cell line, called “3B,” was generated by stably transfecting the 264.7 cell line with a commercially available construct containing the luciferase gene (without the addition of the heterologous 3′ UTR of the TNFα gene) under the regulation of the CMV promoter.
[…] Then, lipopolysaccharide (LPS) was added to stimulate TNFα secretion. Luciferase activity was measured by determining the luminescence intensity due to the reaction of lucifern, ATP, Mg^2+, and molecular O2 (see, for example, Ausubel et al., supra). The luciferase activity in a cell incubated with a candidate compound was reported as a percentage of the luciferase activity for the corresponding cell incubated with DMSO vehicle only.
After correction for any effect caused by the administration of the DMSO only vehicle control, the effect of a candidate compound on luciferase activity in the 3B control cell line represents the global effect of the compound on any step required for expression or activity of luciferase protein, such as luciferase gene transcription, mRNA processing, mRNA stability, translation, protein stability, or enzymatic activity. […] In this case, the luciferase activity in the 5B cell line treated with the DMSO vehicle control is similar to the luciferase activity in the control 3B cell line treated with the candidate compound. Thus, the response of the 5B cell line (as a percent of the DMSO control) and the ratio of the luciferase activity in the 5B cell line (as a percent of the DMSO control) to the luciferase activity in the control 3B cell line (as a percent of the DMSO control) are similar. In desirable embodiments, the response of the 5B cell line and the 5B/3B ratio differ by less than 50, 40, 30, 20, 10, or 5%.
Background: Reporter assays use an easily measured gene product as a stand-in for the process of interest.

For another test, the system named is TNFα. Kind of test: ELISA of TNFα secreted into the media after LPS. It counts as cell-based. As to conditions: for TNFα Secretion (% of DMSO control): 10 μM compound, 1 h, then LPS; for effect on amount of secreted TNFα (direct TNFα secretion assay), in words: after LPS stimulation. How it is done: The ability of candidate compounds to reduce the amount of secreted TNFα was also directly tested using an ELISA assay. […] A standard ELISA analysis was used to measure the amount of TNFα secreted into the media (see, for example, Ausubel et al., supra). The effect of a candidate compound on TNFα secretion in this assay is reported in the following tables as a percentage of the amount of TNFα secreted by a control cell that was administered a DMSO vehicle control only.
Background: An ELISA detects its analyte on a solid surface through an enzyme-linked reagent.

With `CC(C)CC(NC(=O)c1ccc(C(=NNC(=N)N)c2ccccc2)cc1)C(=O)N1CCN(C(=O)C(Cc2ccc(-c3ccccc3)cc2)NC(=O)c2ccc(C(=NNC(=N)N)c3ccccc3)cc2)CC1` (mixture of isomers) [MES 10193], in the test with 3′ UTR of the TNFα gene, the “Luciferase 5B (% of DMSO control)” value is reported as 23 % of DMSO control and the “Luciferase 5B/3B (% of DMSO control 5B)/(% of DMSO control 3B)” value is listed as 38 (% of DMSO control 5B)/(% of DMSO control 3B). Besides, the “TNFα Secretion (% of DMSO control)” value in the test with TNFα is reported as 20 % of DMSO control.
The like results for `CC(C)CC(NC(=O)c1ccc(C(=NNC(=N)N)c2ccccc2)cc1)C(=O)N1CCN(C(=O)C(CCc2ccccc2)NC(=O)c2ccc(C(=NNC(=N)N)c3ccccc3)cc2)CC1` (mixture of isomers) [MES 10194] were, in that order, 34 % of DMSO control, 49 (% of DMSO control 5B)/(% of DMSO control 3B) and 22 % of DMSO control.
The like results for `CC(C)CC(NC(=O)c1ccc(C(=NNC(=N)N)c2ccccc2)cc1)C(=O)N1CCN(C(=O)C(Cc2ccc3ccccc3c2)NC(=O)c2ccc(C(=NNC(=N)N)c3ccccc3)cc2)CC1` (mixture of isomers) [MES 10195] were, in that order, 36 % of DMSO control, 82 (% of DMSO control 5B)/(% of DMSO control 3B) and 33 % of DMSO control.
The like results for `CC(C)CC(NC(=O)c1ccccc1)C(=O)N1CCN(C(=O)C(Cc2ccccc2)NC(=O)c2ccc(C(=NNC(=N)N)c3ccccc3)cc2)CC1` (mixture of isomers) [MES 10222] were, in that order, 36 % of DMSO control, 49 (% of DMSO control 5B)/(% of D and 49 % of DMSO control.
On to `CC(C)CC(NC(=O)c1ccc(C(=NNC(=N)N)c2ccccc2)cc1)C(=O)N1CCN(C(=O)C(Cc2ccccc2)NC(=O)c2ccccc2)CC1` (mixture of isomers) [MES 10231], for which, in the test on 3′ UTR of the TNFα gene, the “Luciferase 5B (% of DMSO control)” value is 34 % of DMSO control and the “Luciferase 5B/3B (% of DMSO control 5B)/(% of DMSO control 3B)” value is listed as 33 (% of DMSO control 5B)/(% of D. In addition, in the test with TNFα, the “TNFα Secretion (% of DMSO control)” value was 49 % of DMSO control.
For the compound `CC(C)CC(NC(=O)c1ccc(C(=NNC(=N)N)c2ccccc2)cc1)C(=O)N1CCN(C(=O)C(Cc2ccccc2)NC(=O)c2ccc([N+](=O)[O-])cc2)CC1` (mixture of isomers) [MES 10233], in the test with 3′ UTR of the TNFα gene, the “Luciferase 5B (% of DMSO control)” value was 36 % of DMSO control and the “Luciferase 5B/3B (% of DMSO control 5B)/(% of DMSO control 3B)” value is listed as 40 (% of DMSO control 5B)/(% of D. For the same compound, the “TNFα Secretion (% of DMSO control)” value with TNFα is reported as 42 % of DMSO control.
The like results for `CC(C)CC(NC(=O)c1ccc(C(=NNC(=N)N)c2ccccc2)cc1)C(=O)N1CCN(C(=O)C(Cc2ccc(F)cc2)NC(=O)c2ccc(C(=NNC(=N)N)c3ccccc3)cc2)CC1` (mixture of isomers) [MES 10236] were, in that order, 18 % of DMSO control, 25 (% of DMSO control 5B)/(% of DMSO control 3B) and 34 % of DMSO control.
In the case of `COc1ccc(CC(NC(=O)c2ccc(C(=NNC(=N)N)c3ccccc3)cc2)C(=O)N2CCN(C(=O)C(CC(C)C)NC(=O)c3ccc(C(=NNC(=N)N)c4ccccc4)cc3)CC2)cc1` (mixture of isomers) [MES 10237], in the test with 3′ UTR of the TNFα gene, the “Luciferase 5B (% of DMSO control)” value is listed as 20 % of DMSO control and the “Luciferase 5B/3B (% of DMSO control 5B)/(% of DMSO control 3B)” value is 27 (% of DMSO control 5B)/(% of DMSO control 3B). For the same compound, the “TNFα Secretion (% of DMSO control)” value in the test with TNFα was 39 % of DMSO control.
For `CC(C)CC(NC(=O)c1ccc(C(=NNC(=N)N)c2ccccc2)cc1)C(=O)N1CCN(C(=O)C(CC2CCCCC2)NC(=O)c2ccc(C(=NNC(=N)N)c3ccccc3)cc2)CC1` (mixture of isomers) [MES 10238], in that order: 32 % of DMSO control, 78 (% of DMSO control 5B)/(% of DMSO control 3B) and 23 % of DMSO control.
For `CC(=NNC(=N)N)c1cccc(C(=O)NC(CC(C)C)C(=O)N2CCN(C(=O)C(Cc3ccc(Cl)cc3)NC(=O)c3ccc(C(=NNC(=N)N)c4ccccc4)cc3)CC2)c1` (mixture of isomers) [MES 10258], in that order: 43 % of DMSO control, 39 (% of DMSO control 5B)/(% of DMSO control 3B) and 42 % of DMSO control.
For `CC(=NNC(=N)N)c1cccc(C(=O)NC(CC(C)C)C(=O)N2CCN(C(=O)C(Cc3ccc(-c4ccccc4)cc3)NC(=O)c3ccc(C(=NNC(=N)N)c4ccccc4)cc3)CC2)c1` (mixture of isomers) [MES 10259], in that order: 22 % of DMSO control, 38 (% of DMSO control 5B)/(% of DMSO control 3B) and 36 % of DMSO control.
Take `CC(=NNC(=N)N)c1cccc(C(=O)NC(CC(C)C)C(=O)N2CCN(C(=O)C(Cc3ccc4ccccc4c3)NC(=O)c3ccc(C(=NNC(=N)N)c4ccccc4)cc3)CC2)c1` (mixture of isomers) [MES 10261]: in the test on 3′ UTR of the TNFα gene, the “Luciferase 5B (% of DMSO control)” value is 76 % of DMSO control and the “Luciferase 5B/3B (% of DMSO control 5B)/(% of DMSO control 3B)” value is on record as 71 (% of DMSO control 5B)/(% of DMSO control 3B). The “TNFα Secretion (% of DMSO control)” value in the test with TNFα is reported as 40 % of DMSO control.
With `CC(=NN=C(N)N)c1cccc(C(=O)NC(Cc2ccccc2)C(=O)N2CCN(C(=O)C(CC(C)C)NC(=O)c3ccc(C(=NN=C(N)N)c4ccccc4)cc3)CC2)c1` (mixture of isomers) [MES 11405], in the test with 3′ UTR of the TNFα gene, the “effect on luciferase activity in the 5B cell line (luciferase assay), in words” value is on record as “decrease TNFα secretion”; the “Luciferase 5B (% of DMSO control)” value is 39 % of DMSO control; the “Luciferase 5B/3B (% of DMSO control 5B)/(% of DMSO control 3B)” value is reported as 49 (% of DMSO control 5B)/(% of D. In addition, in the test on TNFα, the “TNFα Secretion (% of DMSO control)” value is 55 % of DMSO control and the “effect on amount of secreted TNFα (direct TNFα secretion assay), in words” value (shortened to “effect on amount of secreted TNFα”) is “decreased the amount of secreted TNFα”.
Regarding `CC(=NNC(=N)N)c1ccc(C(=O)NC(Cc2ccccc2)C(=O)N2CCN(C(=O)C(CC(C)C)NC(=O)c3cccc(C(C)=NNC(=N)N)c3)CC2)cc1` (mixture of isomers) [MES 11452], in the test on 3′ UTR of the TNFα gene, the “Luciferase 5B (% of DMSO control)” value was 13 % of DMSO control and the “Luciferase 5B/3B (% of DMSO control 5B)/(% of DMSO control 3B)” value is given as 50 (% of DMSO control 5B)/(% of D. In the test on TNFα, the “TNFα Secretion (% of DMSO control)” value is recorded as 88 % of DMSO control and the “effect on amount of secreted TNFα” value was “decreased the amount of secreted TNFα”.
For `CC(C)CC(NC(=O)c1ccc(C(=NN=C(N)N)c2ccccc2)cc1)C(=O)NCCCNC(=O)C(Cc1ccccc1)NC(=O)c1ccc(C(=NN=C(N)N)c2ccccc2)cc1` (mixture of isomers) [MES 11561], in the test on 3′ UTR of the TNFα gene, the “effect on luciferase activity in the 5B cell line (luciferase assay), in words” value is “decrease TNFα secretion; also recorded: greatest inhibition”; the “Luciferase 5B (% of DMSO control)” value is reported as 24 % of DMSO control; the “Luciferase 5B/3B (% of DMSO control 5B)/(% of DMSO control 3B)” value is on record as 26 (% of DMSO control 5B)/(% of D. Moreover, in the test on TNFα, the “TNFα Secretion (% of DMSO control)” value was 41 % of DMSO control and the “effect on amount of secreted TNFα” value is “decreased the amount of secreted TNFα”.
The like results for `CC(=NN=C(N)N)c1cccc(C(=O)NC(CC(C)C)C(=O)NCCCNC(=O)C(Cc2ccccc2)NC(=O)c2ccc(C(=NN=C(N)N)c3ccccc3)cc2)c1` (mixture of isomers) [MES 11562] were, in that order, “decrease TNFα secretion”, 44 % of DMSO control, 38 (% of DMSO control 5B)/(% of D, 50 % of DMSO control and “decreased the amount of secreted TNFα”.
